Test results taken from patent US12544451B2, “Intracellular delivery compositions” (BIOND BIOLOGICS LTD., priority 2021, dated 2026).

Assays:
A375 cells [1] = test: Internalization of PEI-modified IgG (4.5 PEIs) in the presence of endocytosis inhibitors; assay type: cell-based; conditions: overnight, PEI-modified mouse IgG (4.5 PEIs)
Procedure: Cationized moieties are thought to internalize using a natural endocytosis mechanism. The two relevant endocytosis mechanisms are caveolin- and clathrin-mediated endocytosis. The exact mechanism of internalization was elucidated by performing the internalization of PEI-modified IgG in the presence of known specific endocytosis inhibitors. A375 cells were incubated overnight with PEI-modified mouse IgG (4.5 PEIs) in the presence of Clathrin inhibitors (Amantadine or Chlorpromazine) or a Caveolin inhibitor (Genistein). […] This corroborates that Caveolin-mediated endocytosis is exploited by the PEI-modified payloads for internalization as inhibition of Clathrin-mediated endocytosis caused a compensatory increase in Caveolin-mediated endocytosis in the cells.

A375 cells [2] = test: Intracellular BRAF inhibition: Annexin V apoptosis assay in A375 cells (IncuCyte, CellTiter-Glo normalisation); assay type: cell-based; conditions: 1 μM or 3 μM agent, BRAF inhibitor at 10 μM
Procedure: FIGS. 42A-42D. A375 cells were seeded in 96 plate wells for 24 h to allow cells adherence (1500 cells/well). To each well a sample of the tested agent was added at the desired concentration (42A-42B) 1 μM; (42C-42D) […], except BRAF inhibitor, PF-04880594 that was added at 10 μM. (42A, 42C) Red area obtained from the Annexin V red reagent, a commonly used fluorescent dye identifying apoptotic cells, monitored in IncuCyte®. (42B, 42D) Red area normalized to the value obtained by CellTiter-Glo corresponding to intact cells.
Random modification was achieved by reaction of 1C5-Hel20-LC with PEI1800 in the presence of EDC, to give 1C5-Hel20-LC-r-C(O)—NH-PEI1800 (S8). The different constructs of payload conjugated directly to PEI were evaluated for their ability to penetrate A375 cells and induce apoptosis following BRAF inhibition. […]
1C5-Hel20-LC-HSA-PEI (S5C)×n conjugates were prepared by reduction of 1C5-Hel20-LC and activation with 2,2′-Dithiobis(5-nitropyridine) followed by conjugation to HSA-PEI×n. Intracellular BRAF inhibition by the different constructs was evaluated by a functional assay in A375 cells. The different conjugates were incubated with A375 cells in the presence of Annexin V red reagent, for 6 days, while monitoring fluorescence in IncuCyte® to identify apoptotic cells (FIG. 42A, C). […]

[3] = Zeta potential measurement (Zeta Sizer Ultra); assay type: physicochemical; conditions: alternative carriers and HSA before and after PEI modification; STD in separate column
Procedure: Zeta potential measurements were preformed using Zeta Sizer Ultra (Malvern Instruments). Samples' buffers were exchanged to 1 mM NaCl at 1 mg/mL protein concentration. 20 μL from each sample was loaded in zeta cells (DTS1070), five repeats for each sample were measured and the mean zeta potential in mV was obtained for each repeat. The average for the five measurements is reported with the standard deviation. The measurements were performed under the following conditions: temperature 25° C.; run numbers for each repeat 10-40; equilibration time: 60 seconds, without pause after sub runs; 60 seconds pause between repeats; voltage was selected automatic and monomodal analysis method was used in the data processing.
Zeta potential measurements were preformed using Zeta Sizer Ultra (Malvern Instruments), samples buffer was exchanged to 1 mM NaCl at 1 mg/mL protein concentration. 20 μL from each sample were loaded in zeta cells (DTS1070), five repeats for each sample were measured and the mean zeta potential in mV was obtained.

Compound | effect on internalization of PEI-modified IgG (A375 cells [1]) | further results
CN(C)CCCN1c2ccccc2Sc2ccc(Cl)cc21 [Chlorpromazine] | resulted in increased internalization | 
N#CCCNc1nccc(-c2cn(CC(F)F)nc2-c2cnc3[nH]ccc3c2)n1 [PF-04880594, reference compound] |  | apoptosis (Annexin V red signal) (A375 cells [2]): highly potent cell killer
Fibrinogen |  | Zeta potential (mV) [3]: −1.4 mV
O=c1c(-c2ccc(O)cc2)coc2cc(O)cc(O)c12 [Genistein] | inhibited the internalization of PEI-modified IgG | 
